From patent US20230123334A1, “AMINO LIPID COMPOUND, PREPARATION METHOD THEREFOR, AND APPLICATION THEREOF” (SHENZHEN SHENXIN BIOTECHNOLOGY CO., LTD., priority 2020, published 2023) come the findings set out here.

The structures appear in SMILES notation.

For this assay, the system named is HEK293 cells. In words: Preliminary screening as mRNA vectors, EGFP mRNA transfection of HEK293 cells. The conditions noted are these: EGFP mRNA 50 ng per well, 96-well plates; percentage of GFP fluorescent cells relative to total number of cells (Hoechst). It counts as cell-based. The essentials: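 HEK293 cells in DMEM plus 10% FBS transfected in 96-well format with 50 ng EGFP mRNA per well; Lipofectamine2000 served as positive control. Read-out is the percentage of GFP-fluorescent cells among total cells, counted by Hoechst nuclear stain.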

Turning to `CCCCCCCCCCCCCCCNc1nc(NCCCN2CCN(C)CC2)nc(SCCCCCCCCCCCC)n1` [Compound D9S12N15], the “Absolute mRNA transfection efficiency in HEK293 cells” value (“Absolute mRNA transfection efficiency” below) was 0.0%.
Consider `CCCCCCCCCCCCCCCCNc1nc(NCCCN2CCN(C)CC2)nc(SCCCCCCCCCCCC)n1` [Compound D9S12N16], for which the “Absolute mRNA transfection efficiency” value is 1.2%.
For `CCCCCCCCCCCCCCCCCCNc1nc(NCCCN2CCN(C)CC2)nc(SCCCCCCCCCCCC)n1` [Compound D9S12N18], the “Absolute mRNA transfection efficiency” value is 0.2%.
For `CCCCCCCCCCCCCCSc1nc(NCCCCCC)nc(NCCCN2CCN(C)CC2)n1` [Compound D9S14N6] the value was 27.2%.
For `CCCCCCCCCCCCCCSc1nc(NCCCCCCC)nc(NCCCN2CCN(C)CC2)n1` [Compound D9S14N7] the value was 50.1%; for `CCCCCCCCCCCCCCSc1nc(NCCCCCCCC)nc(NCCCN2CCN(C)CC2)n1` [Compound D9S14N8], 24.8%; for `CCCCCCCCCCCCCCSc1nc(NCCCCCCCCC)nc(NCCCN2CCN(C)CC2)n1` [Compound D9S14N9], 23.7%.
With `CCCCCCCCCCCCCCSc1nc(NCCCCCCCCCCC)nc(NCCCN2CCN(C)CC2)n1` [Compound D9S14N11], the “Absolute mRNA transfection efficiency” value was determined as 15.6%.
`CCCCCCCCCCCCCCSc1nc(NCCCCCCCCCCCC)nc(NCCCN2CCN(C)CC2)n1` [Compound D9S14N12]: the “Absolute mRNA transfection efficiency” value was determined as 8.0%.
Under `CCCCCCCCCCCCCCSc1nc(NCCCCCCCCCCCCC)nc(NCCCN2CCN(C)CC2)n1` [Compound D9S14N13] stands 4.8%.
For `CCCCCCCCCCCCCCCNc1nc(NCCCN2CCN(C)CC2)nc(SCCCCCCCCCCCCCC)n1` [Compound D9S14N15] the value was 0.5%.
Under `CCCCCCCCCCCCCCCCNc1nc(NCCCN2CCN(C)CC2)nc(SCCCCCCCCCCCCCC)n1` [Compound D9S14N16] stands 0.8%.
With `CCCCCCCCCCCCCCCCCCNc1nc(NCCCN2CCN(C)CC2)nc(SCCCCCCCCCCCCCC)n1` [Compound D9S14N18], the “Absolute mRNA transfection efficiency” value came to 0.3%.
For `CCCCCCCCCCCCCCCSc1nc(NCCCCCC)nc(NCCCN2CCN(C)CC2)n1` [Compound D9S15N6] the value was 30.7%.
On to `CCCCCCCCCCCCCCCSc1nc(NCCCCCCC)nc(NCCCN2CCN(C)CC2)n1` [Compound D9S15N7], for which the “Absolute mRNA transfection efficiency” value is 15.9%.
For `CCCCCCCCCCCCCCCSc1nc(NCCCCCCCC)nc(NCCCN2CCN(C)CC2)n1` [Compound D9S15N8] the value was 10.8%; for `CCCCCCCCCCCCCCCSc1nc(NCCCCCCCCC)nc(NCCCN2CCN(C)CC2)n1` [Compound D9S15N9], 18.5%.
Turning to `CCCCCCCCCCCCCCCSc1nc(NCCCCCCCCCCC)nc(NCCCN2CCN(C)CC2)n1` [Compound D9S15N11], the “Absolute mRNA transfection efficiency” value was determined as 9.2%.
As to `CCCCCCCCCCCCCCCSc1nc(NCCCCCCCCCCCC)nc(NCCCN2CCN(C)CC2)n1` [Compound D9S15N12], the “Absolute mRNA transfection efficiency” value worked out at 4.4%.
Under `CCCCCCCCCCCCCCCSc1nc(NCCCCCCCCCCCCC)nc(NCCCN2CCN(C)CC2)n1` [Compound D9S15N13] stands 2.0%; under `CCCCCCCCCCCCCCCNc1nc(NCCCN2CCN(C)CC2)nc(SCCCCCCCCCCCCCCC)n1` [Compound D9S15N15], 0.2%.
Under `CCCCCCCCCCCCCCCCNc1nc(NCCCN2CCN(C)CC2)nc(SCCCCCCCCCCCCCCC)n1` [Compound D9S15N16] stands 2.7%; under `CCCCCCCCCCCCCCCCCCNc1nc(NCCCN2CCN(C)CC2)nc(SCCCCCCCCCCCCCCC)n1` [Compound D9S15N18], 0.3%; under `CCCCCCCCCCCCCCCCSc1nc(NCCCCCC)nc(NCCCN2CCN(C)CC2)n1` [Compound D9S16N6], 85.7%.
For `CCCCCCCCCCCCCCCCSc1nc(NCCCCCCC)nc(NCCCN2CCN(C)CC2)n1` [Compound D9S16N7] the value was 97.9%.
For the molecule `CCCCCCCCCCCCCCCCSc1nc(NCCCCCCCC)nc(NCCCN2CCN(C)CC2)n1` [Compound D9S16N8], the “Absolute mRNA transfection efficiency” value was 71.3%.
For `CCCCCCCCCCCCCCCCSc1nc(NCCCCCCCCC)nc(NCCCN2CCN(C)CC2)n1` [Compound D9S16N9] the value was 54.4%.
As to `CCCCCCCCCCCCCCCCSc1nc(NCCCCCCCCCCC)nc(NCCCN2CCN(C)CC2)n1` [Compound D9S16N11], the “Absolute mRNA transfection efficiency” value was 68.4%.
Under `CCCCCCCCCCCCCCCCSc1nc(NCCCCCCCCCCCC)nc(NCCCN2CCN(C)CC2)n1` [Compound D9S16N12] stands 12.4%; under `CCCCCCCCCCCCCCCCSc1nc(NCCCCCCCCCCCCC)nc(NCCCN2CCN(C)CC2)n1` [Compound D9S16N13], 1.4%; under `CCCCCCCCCCCCCCCCSc1nc(NCCCCCCCCCCCCCCC)nc(NCCCN2CCN(C)CC2)n1` [Compound D9S16N15], 0.2%.
Under `CCCCCCCCCCCCCCCCNc1nc(NCCCN2CCN(C)CC2)nc(SCCCCCCCCCCCCCCCC)n1` [Compound D9S16N16] stands 0.1%; under `CCCCCCCCCCCCCCCCCCNc1nc(NCCCN2CCN(C)CC2)nc(SCCCCCCCCCCCCCCCC)n1` [Compound D9S16N18], 0.1%.
For `CCCCCCCCCCCCCCCCCCSc1nc(NCCCCCC)nc(NCCCN2CCN(C)CC2)n1` [Compound D9S18N6] the value was 55.4%.
As for `CCCCCCCCCCCCCCCCCCSc1nc(NCCCCCCC)nc(NCCCN2CCN(C)CC2)n1` [Compound D9S18N7], the “Absolute mRNA transfection efficiency” value was determined as 86.6%.
With `CCCCCCCCCCCCCCCCCCSc1nc(NCCCCCCCC)nc(NCCCN2CCN(C)CC2)n1` [Compound D9S18N8], the “Absolute mRNA transfection efficiency” value is reported as 25.8%.
With `CCCCCCCCCCCCCCCCCCSc1nc(NCCCCCCCCC)nc(NCCCN2CCN(C)CC2)n1` [Compound D9S18N9], the “Absolute mRNA transfection efficiency” value is recorded as 7.6%.
For the molecule `CCCCCCCCCCCCCCCCCCSc1nc(NCCCCCCCCCCC)nc(NCCCN2CCN(C)CC2)n1` [Compound D9S18N11], the “Absolute mRNA transfection efficiency” value turned out to be 4.3%.
`CCCCCCCCCCCCCCCCCCSc1nc(NCCCCCCCCCCCC)nc(NCCCN2CCN(C)CC2)n1` [Compound D9S18N12]: the “Absolute mRNA transfection efficiency” value is recorded as 1.7%.
Under `CCCCCCCCCCCCCCCCCCSc1nc(NCCCCCCCCCCCCC)nc(NCCCN2CCN(C)CC2)n1` [Compound D9S18N13] stands 0.0%.
For `CCCCCCCCCCCCCCCCCCSc1nc(NCCCCCCCCCCCCCCC)nc(NCCCN2CCN(C)CC2)n1` [Compound D9S18N15] the value was 0.0%.
For `CCCCCCCCCCCCCCCCCCSc1nc(NCCCCCCCCCCCCCCCC)nc(NCCCN2CCN(C)CC2)n1` [Compound D9S18N16] the value was 0.1%; for `CCCCCCCCCCCCCCCCCCNc1nc(NCCCN2CCN(C)CC2)nc(SCCCCCCCCCCCCCCCCCC)n1` [Compound D9S18N18], 0.1%; for `CCCCCCNc1nc(NCC2CCN(C)CC2)nc(SCCCCCC)n1` [Compound D10S6N6], 0.3%.
For the molecule `CCCCCCCNc1nc(NCC2CCN(C)CC2)nc(SCCCCCC)n1` [Compound D10S6N7], the “Absolute mRNA transfection efficiency” value was determined as 5.5%.
For `CCCCCCCCNc1nc(NCC2CCN(C)CC2)nc(SCCCCCC)n1` [Compound D10S6N8] the value was 1.4%.
Under `CCCCCCCCCNc1nc(NCC2CCN(C)CC2)nc(SCCCCCC)n1` [Compound D10S6N9] stands 1.2%.
For `CCCCCCCCCCCNc1nc(NCC2CCN(C)CC2)nc(SCCCCCC)n1` [Compound D10S6N11] the value was 4.0%; for `CCCCCCCCCCCCNc1nc(NCC2CCN(C)CC2)nc(SCCCCCC)n1` [Compound D10S6N12], 9.6%; for `CCCCCCCCCCCCCNc1nc(NCC2CCN(C)CC2)nc(SCCCCCC)n1` [Compound D10S6N13], 22.7%.
With `CCCCCCCCCCCCCCCNc1nc(NCC2CCN(C)CC2)nc(SCCCCCC)n1` [Compound D10S6N15], the “Absolute mRNA transfection efficiency” value worked out at 7.9%.
For the molecule `CCCCCCCCCCCCCCCCNc1nc(NCC2CCN(C)CC2)nc(SCCCCCC)n1` [Compound D10S6N16], the “Absolute mRNA transfection efficiency” value is on record as 41.5%.
For `CCCCCCCCCCCCCCCCCCNc1nc(NCC2CCN(C)CC2)nc(SCCCCCC)n1` [Compound D10S6N18] the value was 41.4%; for `CCCCCCSc1nc(NCC2CCN(C)CC2)nc(SCCCCCC)n1` [Compound D10S6S6], 14.4%; for `CCCCCCCSc1nc(NCC2CCN(C)CC2)nc(SCCCCCC)n1` [Compound D10S6S7], 19.7%.
Under `CCCCCCCCSc1nc(NCC2CCN(C)CC2)nc(SCCCCCC)n1` [Compound D10S6S8] stands 6.6%; under `CCCCCCCCCSc1nc(NCC2CCN(C)CC2)nc(SCCCCCC)n1` [Compound D10S6S9], 14.7%; under `CCCCCCCCCCSc1nc(NCC2CCN(C)CC2)nc(SCCCCCC)n1` [Compound D10S6S10], 22.4%.
For `CCCCCCCCCCCSc1nc(NCC2CCN(C)CC2)nc(SCCCCCC)n1` [Compound D10S6S11] the value was 15.9%.
